For one test, the system named is ACC. The conditions noted are these: Phase II trials in ACC; cited from earlier work.
Another test deals with c-myb:GFP. The experiment in a line: c-myb:GFP zebrafish blastomere embryo culture chemical screen. The class given is cell-based. Conditions: approximately 30 μM, 2 days. As to the method: The inventors have developed an embryo culture system in which embryos bearing a c-myb:GFP transgenic reporter were dissociated during sphere stage at 4 hours post fertilization (hpf), and cultured in gelatin-coated 384 well plates with chemicals for 2 days until imaging for fluorescent reporter activity (FIG. 1). This fluorescent transgene is expressed in a similar pattern to the endogenous gene. […] This transgene responds to inducers of hematopoiesis, as myb is a marker of hematopoietic stem cells (HSCs).
The image analysis software (ImageJ and MatLab) was used to identify hits that downregulate c-myb:GFP zebrafish embryo cultures by a z-score less than […] and more than 70% downregulation. Hits were assessed by eye and scored for morphology. Toxic compounds that caused poor embryoid body (EB) formation were assessed a 4.
Zebrafish cell culture: Zebrafish embryo cultures were adapted from Xu (2013). Dissociated blastomere cells were grown in medium composed of 85% LDF medium, 5% heat inactivated FBS, and 10% zebrafish day 1 embryo extract. LDF medium contains 50% Leibowitz's L-15 (Invitrogen), 20% DMEM (Invitrogen), and 30% DMEM/F-12 (Invitrogen), supplemented with 0.018% sodium bicarbonate, 15 mM HEPES (Invitrogen), 1% L-Glutamine (Invitrogen), 10 nM sodium selenite (Sigma-Aldrich), 1% N2 (Invitrogen), 2% B27 (Invitrogen), 1% Penicillin-Streptomycin (Invitrogen), and 0.2% Primocin (InvivoGen).
Screening procedures: Two 384-well plates were coated with 0.1% gelatin for each chemical library plate. Males of the c-myb:GFP transgenic line were set up overnight with casper females and kept separated until morning when they were mixed for mating. Embryos were washed twice with E3 embryo water and treated with pronase to remove chorions. Dechorionated embryos were washed with E3 embryo water and collected into tubes containing media. Embryos were disassociated by shaking ˜10 times and were filtered through a 40 μm nylon mesh filter. Resulting single cells were diluted with medium and aliquoted 30 μl per well into the 384-well plates at approximately 2 embryo equivalents per well. Chemicals were dispensed immediately afterwards with an Agilent Bravo robot. Chemicals from the libraries were diluted 300 times with LDF medium and were aliquoted 10 μl per well for a final concentration of approximately 33 μM. […] Cells were cultured in a 28° C. incubator with 5% CO2. Two days later, cells were imaged by a Yokogawa Cell Voyager 7000 imager. Images were analyzed by ImageJ and MatLab and confirmed by eye. […]
Culture of dissociated blastomere cells: Stage-matched zebrafish blastomeres were dissociated at 4 hpf and grown in medium composed of 85% LDF medium, 5% FBS, and 10% embryo extract. LDF medium contains 50% Leibowitz's L-15 (Invitrogen), 20% DMEM (Invitrogen), and 30% DMEM/F-12 (Invitrogen), supplemented with 2% B27 (Gibco), 15 mM HEPES (Gibco), 1% L-glutamine (Gibco), 1% N2 (Gibco), 10 nM sodium selenite (Sigma), 100 ug/mL piperacillin (Sigma), 10 ug/mL ciprofloxacin (GenHunter), and 0.018% sodium bicarbonate (Gibco). Embryo extract was made by homogenizing 24 hpf wildtype AB embryos in HBSS (Gibco).

Test [1] concerns c-myb. The experiment in a line: qPCR of sorted c-myb:GFP zebrafish embryo cells. Type of test: cell-based. Conditions: sorted c-myb:GFP cells from 72 hpf embryos, 1 μM, 6 hours. As to the method: RA dose response experiments were plated similarly in LDF medium with the appropriate RA concentration. Sorted c-myb:GFP+ cells were collected from 72 hpf transgenic embryos that were homogenized: embryos were finely chopped and dissociated using Liberase (Roche), cell suspensions were filtered, and 58,000 GFP+ live cells were collected using a FACS Aria cell sorter (BD Biosciences). Cells were cultured for 6 hours in LDF medium, and then collected for qPCR.
(§1) Quantitative PCR: Total RNA from cells was extracted using Qiagen RNeasy Mini Kit, and random primed cDNA was generated (Invitrogen, SuperScript III First-Strand Synthesis System). The SsoFast EvaGreen (Biorad) method was used to quantify cDNAs of interest, which are represented as the fold change in transcript level. The amount of cDNA starting material for each sample was normalized in relation to species-specific β-actin expression for zebrafish samples, and both gapdh and β-actin expression for human samples. The primer sequences used were zebrafish myb: forward, 5′-[…]-3′ (SEQ ID No:1), reverse, 5′-[…]-3′ (SEQ ID No:2); zebrafish β-actin: forward, 5′-[…]-3′ (SEQ ID No:3), reverse, 5′-[…]-3′ (SEQ ID No:4); human myb: forward, 5′-[…]-3′ (SEQ ID No:5), reverse, 5′-[…]-3′ (SEQ ID No:6); human gapdh: forward, 5′-[…]-3′ (SEQ ID No:7), reverse, 5′-[…]-3′ (SEQ ID No:8); human β-actin: forward, 5′-[…]-3′ (SEQ ID No:9), reverse, 5′-[…]-3′ (SEQ ID No:10).
Zebrafish quantitative PCR analysis: Stage-matched 72 hpf c-myb:GFP transgenic embryos were finely chopped and dissociated using Liberase (Roche). GFP+ cells were collected using a FACS Aria cell sorter (BD Biosciences). Sorted cells were resuspended in zebrafish blastomere media and plated with 1 μM retinoic acid agonists for 6 hours. Cells were then collected and RNA was isolated using the RNeasy Micro Plus Kit (Qiagen) as per the manufacturer's instructions. cDNA was synthesized using the SuperScript III Kit (Life Technologies). Quantitative PCR was performed in triplicate on a BioRad iQ5 real-time PCR machine using Ssofast EvaGreen Supermix (BioRad). Samples were normalized to β-actin gene. Zebrafish primers used (forward and reverse respectively): actin, 5′-[…]-3′ (SEQ ID No:3) and 5′-[…] -3′ (SEQ ID No:4); c-myb, 5′-[…]-3′ (SEQ ID No:1) and 5′-[…]-3′ (SEQ ID No:2); mpx, 5′-[…]-3′ (SEQ ID No:11) and 5′-[…]-3′ (SEQ ID No:12); GFP, 5′-[…]-3′ (SEQ ID No:13) and 5′-[…]-3′ (SEQ ID No:14).
On the technique in general: In qPCR the cycle at which signal appears reflects the starting amount.

In test [2] the test system is c-myb. The experiment in a line: U937 time course qPCR of c-myb. Conditions: 1 μM; 6, 24 and 48 hours. Type of test: cell-based, human. The method, then:
Cell culture: U937 cells were grown in RPMI 1640 (Life Technologies), 10% heat inactivated FBS, and 1% Penicillin-Streptomycin (Invitrogen). CellTiter-Glo Luminescent Cell Viability Assay (Promega) was performed as per manufacturer's instructions. Cell viability was assessed at day 2.
as §1
U937 time course quantitative PCR analysis: U937 cells were plated with 1 μM retinoic acid agonists for the duration indicated. Cells were then collected and RNA was isolated using the RNeasy Plus Mini Kit (Qiagen) as per the manufacturer's instructions. Further processing was done as described in the section above. Samples were normalized to β-actin gene. Human primers used (forward and reverse respectively): actin, 5′-[…]-3′ (SEQ ID No:9) and 5′-[…]-3′ (SEQ ID No:10); c-myb, 5′-[…]-3′ (SEQ ID No:5) and 5′-[…]-3′ (SEQ ID No:6).

Where [3] appears, read: Table 2, c-myb:GFP embryo cultures.
Setting [4] is: Table 2, c-myb:GFP embryo cultures, average across two plates.
Setting [5] is: Table 3, GFP signal in blastomere embryo culture screen.

These results are taken from patent US10668039B2, “Methods for treatment of adenoid cystic carcinoma” (THE CHILDREN'S MEDICAL CENTER CORPORATION, priority 2016, dated 2020).

Molecules are shown by their SMILES.

Take `CNC(=O)c1cc(Oc2ccc(NC(=O)Nc3ccc(Cl)c(C(F)(F)F)c3)cc2)ccn1` [Sorafenib]: the “Objective Response Rate” value in the test with ACC is 11%.
In the case of `CCCCOCCOc1nc(-c2ccc(C(=O)O)c(F)c2)sc1C` [AC 261066, 4-[4-(2-Butoxyethoxy-)-5-methyl-2-thiazolyl]-2-fluorobenzoic acid], the “Fold Change” value with c-myb:GFP (setting [3]) and in the test on c-myb:GFP (setting [5]) was −0.7734 in each case. The Z-Score in the test with c-myb:GFP (setting [4]) and in the test with c-myb:GFP (setting [5]) was −1.697 throughout.
On to `Cl.FC(F)(F)c1cc(CO[C@H]2CCCN[C@H]2c2ccccc2)cc(C(F)(F)F)c1` [L-733,060 hydrochloride], for which the “Fold Change” value with c-myb:GFP (setting [3]) is −0.752. This molecule also returned a Z-Score in the test on c-myb:GFP (setting [4]) of −1.715.
`O=c1c2ccccc2[nH]c(=S)n1CCN1CCC(=C(c2ccc(F)cc2)c2ccc(F)cc2)CC1` [Diacylglycerol Kinase Inhibitor II]: the Z-Score in the test on c-myb:GFP (setting [4]) is reported as −1.493.
On to `CO[C@H]1C[C@@H]2CC[C@@H](C)[C@@](O)(O2)C(=O)C(=O)N2CCCC[C@H]2C(=O)O[C@H]([C@H](C)C[C@@H]2CC[C@@H](OCCO)[C@H](OC)C2)CC(=O)[C@H](C)/C=C(\C)[C@@H](O)[C@@H](OC)C(=O)[C@H](C)C[C@H](C)/C=C/C=C/C=C/1C` [Everolimus], for which the “Objective Response Rate” value in the test on ACC is on record as 0%.
In turn, `Cc1c(C(C)Nc2ncnc3sccc23)cnn1C` (stereo not drawn) [N-[1-(1,5-dimethyl-1H-pyrazol-4-yl)ethyl]thieno[2,3-d]pyrimidin-4-amine] showed a Z-Score in the test on c-myb:GFP (setting [4]) of −2.83.
As to `COc1cc2ncnc(Nc3ccc(F)c(Cl)c3)c2cc1OCCCN1CCOCC1` [Gefitinib], the “Objective Response Rate” value with ACC is 0%.
Turning to `Cc1nn(C)cc1-c1ccnc(NC(CC(C)(C)C)c2cccnc2)n1` (stereo not drawn) [4-(1,3-dimethyl-1H-pyrazol-4-yl)-N-(3,3-dimethyl-1-pyridin-3-ylbutyl)pyrimidin-2-amine], in the test with c-myb:GFP (setting [4]), the Z-Score is −2.29.
Still for that read-out and setting: the figure for `COc1ccc2c(c1)c(CC(=O)O)c(C)n2Cc1ccc(F)cc1` [1-(4-Fluorobenzyl)-5-methoxy-2-methylindole-3-acetic acid] is −1.726.
For `C=C(C)[C@H]1CC=C(C(=O)O)CC1` [(−)-Perillic acid], the “Fold Change” value with c-myb:GFP (setting [3]) is on record as −0.7327. In the test with c-myb:GFP (setting [4]), the Z-Score was −1.848.
For `O=C(CCCCCCC(=O)Nc1ccccc1)NO` [Vorinostat], in the test with ACC, the “Objective Response Rate” value is given as 3%.
`O=C(O[C@H]1[C@H](Oc2ccccc2COC(=O)C2(O)C=CCCC2=O)O[C@H](CO)[C@@H](O)[C@@H]1O)c1ccccc1` (stereo partly drawn) [TREMULACIN]: in the test with c-myb:GFP (setting [4]), the Z-Score was −3.9299.
For the molecule `C/C(=C\c1ccc(C(=O)O)cc1)c1ccc2c(c1)C(C)(C)CCC2(C)C` [TTNPB, 4-[(E)-2-(5,6,7,8-Tetrahydro-5,5,8,8-tetramethyl-2-naphthalenyl)-1-propenyl]benzoic acid], the Z-Score is recorded as −1.6339 in the test on c-myb:GFP (setting [4]) and −1.634 in the test on c-myb:GFP (setting [5]).
In the case of `CC(C)C[C@H](NC(=O)[C@H](Cc1ccccc1)NC(=O)c1cnccn1)B(O)O` [Bortezomib], the “Objective Response Rate” value with ACC was 0%.
Consider `CC1(C)O[C@@H]2C[C@H]3[C@@H]4C[C@H](F)C5=CC(=O)C=C[C@]5(C)[C@H]4[C@@H](O)C[C@]3(C)[C@]2(C(=O)CO)O1` [FluniSOLIDe], for which the Z-Score with c-myb:GFP (setting [4]) is listed as −3.085.
On the same count and under the same terms, the figure for `Cc1nsc(NC(=O)N2CCCC(Cc3ccc(F)cc3)C2)n1` (stereo not drawn) [3-(4-fluorobenzyl)-N-(3-methyl-1,2,4-thiadiazol-5-yl)piperidine-1-carboxamide] is −3.287.
As to `Cc1ccc(NC(=O)c2ccc(CN3CCN(C)CC3)cc2)cc1Nc1nccc(-c2cccnc2)n1` [Imatinib], the “Objective Response Rate” value in the test on ACC is listed as 0%.
In the case of `CC1(C)CCC(C)(C)c2cc(C(=O)Nc3ccc(C(=O)O)cc3)ccc21` [AM-580, 4-[(5,6,7,8-Tetrahydro-5,5,8,8-tetramethyl-2-naphthalenyl)carboxamido]benzoic acid], the “Fold Change” value with c-myb:GFP (setting [3]) and with c-myb:GFP (setting [5]) was −0.9547 in each case. Moreover, the Z-Score with c-myb:GFP (setting [4]) and with c-myb:GFP (setting [5]) was −1.631 throughout.
The molecule `COc1ccc(N2CCN(C(=O)Nc3nc(C)ns3)CC2(C)C)cc1` [4-(4-methoxyphenyl)-3,3-dimethyl-N-(3-methyl-1,2,4-thiadiazol-5-yl)piperazine-1-carboxamide] showed a Z-Score in the test on c-myb:GFP (setting [4]) of −2.357.
Regarding `CS(=O)(=O)CCNCc1ccc(-c2ccc3ncnc(Nc4ccc(OCc5cccc(F)c5)c(Cl)c4)c3c2)o1` [Lapatinib], the “Objective Response Rate” value in the test with ACC is 0%.
In the test on c-myb:GFP (setting [4]), `O=C(c1ccc(OCCN2CCCCC2)cc1)c1c(-c2ccc(O)cc2)sc2cc(O)ccc12` [Evista] showed a Z-Score of −3.318.
`CC1=C(/C=C/C(C)=C\C=C\C(C)=C\C(=O)O)C(C)(C)CCC1` [9-cis retinoic acid]: the “Fold Change” value with c-myb:GFP (setting [3]) and in the test on c-myb:GFP (setting [5]) was −0.9153 throughout. The Z-Score in the test on c-myb:GFP (setting [4]) and in the test with c-myb:GFP (setting [5]) was −1.566 in each case. In addition, in the test with c-myb [1], the “endogenous myb levels by qPCR” value is reported as “significantly downregulate”. In addition, in the test with c-myb [2], the “myb levels in U937 by qPCR” value is recorded as “significantly downregulate”.
For the molecule `Cc1nsc(NC(=O)N2CCC(Sc3ccccc3C)CC2)n1` [4-[(2-methylphenyl)thio]-N-(3-methyl-1,2,4-thiadiazol-5-yl)piperidine-1-carboxamide], the Z-Score with c-myb:GFP (setting [4]) is −2.228.
The same measure, in the same setting: the figure for `O=C(Cc1cccc(O)c1)NCc1cc2cc(Cl)ccc2[nH]1` [N-[(5-chloro-1H-indol-2-yl)methyl]-2-(3-hydroxyphenyl)acetamide] is −3.297; for `Nc1nc2ccc(OC(F)(F)F)cc2s1` [Riluzole] it is −6.521.
